# Values quoted from earlier work, collected in PubChem BioAssay AID1259409 (Chemical Carcinogenesis Research Information System (CCRIS), 2018).
# System: rodent chemically induced tumor inhibition, incidence and multiplicity
# Assay: CCRIS tumor inhibitor studies
compound,measurement,setting,value
NCCOc1c(Cl)cc(Cl)cc1-c1ccccc1,"tumour outcome (control, treated, inhibition, significance)","Carcinogen: ETHYL CARBAMATE, 51-79-6, Dose [Inhibitor]: 0, 0.04 MG/G PER DOSE IN 0.01 ML OF 0.9% SALINE ADMINISTERED IN 4 DOSES AT 3 HR INTERVALS BEGINNING 30 MIN PRIOR TO CARC, Route [Inhibitor]: INTRAPERITONEAL, Species: MOUSE, Strain/Sex: B6C3F1/MALE, Target Tissue: Type of Lesion: LIVER: HEPATOMA, Dose [Carcinogen]: 0.125 MG/G ONCE, Promoter: NONE USED","21/21 (100%), 23/25 (92%), 8%, not calculated"
same,"tumour outcome (control, treated, inhibition, significance)","Carcinogen: ETHYL CARBAMATE, 51-79-6, Dose [Inhibitor]: 0, 0.04 MG/G PER DOSE IN 0.01 ML OF 0.9% SALINE ADMINISTERED IN 4 DOSES AT 3 HR INTERVALS BEGINNING 30 MIN PRIOR TO CARC, Route [Inhibitor]: INTRAPERITONEAL, Species: MOUSE, Strain/Sex: B6C3F1/MALE, Target Tissue: Type of Lesion: LIVER: HEPATOMA, Dose [Carcinogen]: 0.25 MG/G ONCE, Promoter: NONE USED","25/25 (100%), 24/24 (100%), 0%, not calculated"
same,"tumour outcome (control, treated, inhibition, significance)","Carcinogen: ETHYL CARBAMATE, 51-79-6, Dose [Inhibitor]: 0, 0.04 MG/G PER DOSE IN 0.01 ML OF 0.9% SALINE ADMINISTERED IN 4 DOSES AT 3 HR INTERVALS BEGINNING 30 MIN PRIOR TO CARC, Route [Inhibitor]: INTRAPERITONEAL, Species: MOUSE, Strain/Sex: B6C3F1/MALE, Target Tissue: Type of Lesion: LIVER: HEPATOMA, Dose [Carcinogen]: 0.5 MG/G ONCE, Promoter: NONE USED","22/22 (100%), 21/22 (95%), 5%, not calculated"
same,"tumour outcome (control, treated, inhibition, significance)","Carcinogen: VINYL CARBAMATE, 15805-73-9, Dose [Inhibitor]: 0, 0.04 MG/G PER DOSE IN 0.01 ML OF 0.9% SALINE ADMINISTERED IN 4 DOSES AT 3 HR INTERVALS BEGINNING 30 MIN PRIOR TO CARC, Route [Inhibitor]: INTRAPERITONEAL, Species: MOUSE, Strain/Sex: B6C3F1/MALE, Target Tissue: Type of Lesion: LIVER: HEPATOMA, Dose [Carcinogen]: 0.003 MG/G ONCE, Promoter: NONE USED","21/24 (88%), 25/25 (100%), -14%, not calculated"
same,"tumour outcome (control, treated, inhibition, significance)","Carcinogen: VINYL CARBAMATE, 15805-73-9, Dose [Inhibitor]: 0, 0.04 MG/G PER DOSE IN 0.01 ML OF 0.9% SALINE ADMINISTERED IN 4 DOSES AT 3 HR INTERVALS BEGINNING 30 MIN PRIOR TO CARC, Route [Inhibitor]: INTRAPERITONEAL, Species: MOUSE, Strain/Sex: B6C3F1/MALE, Target Tissue: Type of Lesion: LIVER: HEPATOMA, Dose [Carcinogen]: 0.008 MG/G ONCE, Promoter: NONE USED","26/26 (100%), 22/23 (96%), 4%, not calculated"
same,"tumour outcome (control, treated, inhibition, significance)","Carcinogen: VINYL CARBAMATE, 15805-73-9, Dose [Inhibitor]: 0, 0.04 MG/G PER DOSE IN 0.01 ML OF 0.9% SALINE ADMINISTERED IN 4 DOSES AT 3 HR INTERVALS BEGINNING 30 MIN PRIOR TO CARC, Route [Inhibitor]: INTRAPERITONEAL, Species: MOUSE, Strain/Sex: B6C3F1/MALE, Target Tissue: Type of Lesion: LIVER: HEPATOMA, Dose [Carcinogen]: 0.025 MG/G ONCE, Promoter: NONE USED","23/23 (100%), 24/25 (96%), 4%, not calculated"
CC[C@@H](C)[C@@H](N)C(=O)OC,"tumour outcome (control, treated, inhibition, significance)","Carcinogen: 7,12-DIMETHYLBENZ[A]ANTHRACENE, 57-97-6, Dose [Inhibitor]: 0, 1 MG IN 0.2 ML ACETONE APPLIED 30 MIN AFTER EACH MEZEREIN DOSE (STUDY DURATION: 20 WK), Route [Inhibitor]: DERMAL, Species: MOUSE, Strain/Sex: SENCAR/FEMALE, Target Tissue: Type of Lesion: SKIN: PAPILLOMA, Dose [Carcinogen]: 0.1 UMOL IN 0.2 ML ACETONE ONCE, Promoter: TPA, 16561-29-8, MEZEREIN, 37807-41-5, Promoter: TPA, 16561-29-8, MEZEREIN, 37807-41-5","100%, 76%, 24%, p<0.005"
same,"tumour outcome (control, treated, inhibition, significance)","Carcinogen: 7,12-DIMETHYLBENZ[A]ANTHRACENE, 57-97-6, Dose [Inhibitor]: 0, 1 MG IN 0.2 ML ACETONE APPLIED 30 MIN AFTER EACH TPA DOSE (STUDY DURATION: 20 WK), Route [Inhibitor]: DERMAL, Species: MOUSE, Strain/Sex: SENCAR/FEMALE, Target Tissue: Type of Lesion: SKIN: PAPILLOMA, Dose [Carcinogen]: 0.1 UMOL IN 0.2 ML ACETONE ONCE, Promoter: TPA, 16561-29-8, MEZEREIN, 37807-41-5, Promoter: TPA, 16561-29-8, MEZEREIN, 37807-41-5","100%, 83%, 17%, p<0.005"
CC1=CC(=O)c2c(O)cccc2C1=O,"tumour outcome (control, treated, inhibition, significance)","Carcinogen: AZOXYMETHANE [25843-45-2], Dose [Inhibitor]: 200 PPM IN DIET FOR 4 WK BEGINNING 1 WK PRIOR TO FIRST CARCINOGEN DOSE (STUDY DURATION: 35 WK), Route [Inhibitor]: ORAL, Species: RAT, Strain/Sex: F344/MALE, Target Tissue: Type of Lesion: COLON: ADENOMA, Dose [Carcinogen]: 15 MG/KG BW 1X/WK FOR 3 WK (STUDY DURATION: 35 WK), Promoter: NONE","6/28 (21%), 3/29 (10%), 52%, not significant"
same,"tumour outcome (control, treated, inhibition, significance)","Carcinogen: AZOXYMETHANE [25843-45-2], Dose [Inhibitor]: 200 PPM IN DIET FOR 4 WK BEGINNING 1 WK PRIOR TO FIRST CARCINOGEN DOSE (STUDY DURATION: 35 WK), Route [Inhibitor]: ORAL, Species: RAT, Strain/Sex: F344/MALE, Target Tissue: Type of Lesion: COLON: CARCINOMA, Dose [Carcinogen]: 15 MG/KG BW 1X/WK FOR 3 WK (STUDY DURATION: 35 WK), Promoter: NONE","8/28 (29%), 8/29 (28%), 3%, not significant"
same,"tumour outcome (control, treated, inhibition, significance)","Carcinogen: AZOXYMETHANE [25843-45-2], Dose [Inhibitor]: 200 PPM IN DIET FOR 4 WK BEGINNING 1 WK PRIOR TO FIRST CARCINOGEN DOSE (STUDY DURATION: 35 WK), Route [Inhibitor]: ORAL, Species: RAT, Strain/Sex: F344/MALE, Target Tissue: Type of Lesion: SMALL INTESTINE: CARCINOMA, Dose [Carcinogen]: 15 MG/KG BW 1X/WK FOR 3 WK (STUDY DURATION: 35 WK), Promoter: NONE","7/28 (25%), 3/29 (10%), 60%, not significant"
